Measurements taken from US6878746B2, “Carbamate and thiocarbamate podophyllotoxin derivatives, preparation method and pharmaceutical compositions containing them” (priority 2000, dated 2005).

Legend:
[1] = system: Lewis lung carcinoma (LLC); assay: Anti-tumour activity on Lewis lung carcinoma; type: in vivo, B6D2F1 mice; conditions: D 4, 8, 12; for T/C %: increase in survival time; for Survivors D90: surviving animals on day 90, 7 animals per group
Source text: Lewis lung carcinoma (LLC) is a solid tumour that appeared spontaneously in the lungs of a C57B1/6 mouse and is maintained by successive transplants of fragments by the s.c. route. The LLC was obtained from the Division of Cancer Treatment, Tumor Repository, National Cancer Institute, Frederick, Md., USA. The mice, which are 4 to 6 weeks old, were obtained from Iffa Credo (Lyon, France), and weighed from 20 to 22 g at the beginning of the experiment.
On the first day of the experiment (D0), the tumours are removed and cut into fragments of approximately 30 mg which are immediately grafted by the s.c. route into the B6D2F1 mice. The mice into which the fragments have been implanted are then randomly divided into the treated groups and the control group (7 animals per group).
The parameter used for evaluating the anti-tumour activity is the increase in survival time.
In addition, the number of surviving animals in each group is counted at the end of the experiment on day 90.
The products were administered in accordance with the scheme shown below. The results are expressed as % T/C, calculated in the same manner as in the preceding test: […]

P388 (murine leukaemia) = assay: Anti-tumour activity on P388 leukaemia; type: in vivo, female BDF1 mice; conditions: 6.25 mg/kg, intravenous route on day 1; tumour cells inoculated i.p.
Experimental: Line P388 (murine leukaemia) was supplied by the National Cancer Institute (Frederick, USA). The tumour cells (10^6 cells) were inoculated on day 0 into the peritoneal cavity of female BDF1 mice (Iffa-Credo, France) weighing from 18 to 20 g (groups of 6 animals).
The products were administered by the intravenous route on day 1.
The anti-tumour activity is expressed as % T/C: [formula] For information only, the compound of Example 6 is active against P388 leukaemia and induces a T/C of 203% at 6.25 mg/kg. *Anti-tumour Activity of the Compounds on Lewis Lung Carcinoma: […]

colon carcinoma HT29 = assay: In vitro cytotoxicity, Microculture Tetrazolium Assay; type: cell-based, human; conditions: exposure for four doubling periods (48 or 96 hours)
Experimental: (§1) The compounds of the invention were tested on various human and murine cell lines: • murine leukaemia L1210, • epidermoid carcinoma A-431, • non-small-cell lung carcinoma A549, • small-cell lung carcinoma H69, • colon carcinoma HT29, • buccal epidermoid carcinoma KB-3-1.
(§2) The cells are cultured in RPMI 1640 complete culture medium comprising 10% foetal calf serum, 2 mM glutamine, 50 units/ml of penicillin, 50 μg/ml of streptomycin and 10 mM Hepes, pH 7.4. The cells are distributed on microplates and are exposed to the cytotoxic compounds for four doubling periods, that is to say 48 hours or 96 hours. The number of viable cells is then quantified by a colorimetric assay, the Microculture Tetrazolium Assay (J. Carmichael et al., Cancer Res.; 47, 936-942, (1987)). The results are expressed as IC50, the cytotoxic concentration that inhibits the proliferation of the treated cells by 50%.

[2] = system: buccal epidermoid carcinoma KB-3-1; assay: as above; type: cell-based, human; conditions: exposure for four doubling periods (48 or 96 hours)
Experimental: as §1, §2

[3] = system: epidermoid carcinoma A-431; assay: as above; type: cell-based, human; conditions: exposure for four doubling periods (48 or 96 hours)
Experimental: as §1, §2

[4] = system: small-cell lung carcinoma H69; assay: as above; type: cell-based, human; conditions: exposure for four doubling periods (48 or 96 hours)
Experimental: as §1, §2

[5] = system: non-small-cell lung carcinoma A549; assay: as above; type: cell-based, human; conditions: exposure for four doubling periods (48 or 96 hours)
Experimental: as §1, §2

L1210 cells = assay: Action on the cell cycle (propidium iodide); type: cell-based, murine; conditions: 100 nM, after 21 hours; control: 20%
Experimental: L1210 cells are incubated for 21 hours at 37° C. in the presence of various concentrations of test compounds. The cells are then fixed using 70% ethanol (v/v), washed twice in PBS and incubated for 30 minutes at 20° C. in PBS that contains 100 μg/ml of RNAse and 50 μg/ml of propidium iodide. The results are expressed as a percentage of the cells that have accumulated in the G2+M phase after 21 hours compared with the control (control: 20%). At a concentration of 100 nM, the compound of Example 6 induces an 86% accumulation of the cells in the G2+M phase after 21 hours.

murine leukaemia L1210 = assay: In vitro cytotoxicity, Microculture Tetrazolium Assay; type: cell-based; conditions: exposure for four doubling periods (48 or 96 hours)
Experimental: as §1, §2

Row | Compound | T/C % ([1]; 25 mg/kg i.v.) [%] | Survivors D90 ([1]; 25 mg/kg i.v.) | T/C (P388 (murine leukaemia)) [%] | IC50 (colon carcinoma HT29) [nM] | IC50 [2] [nM] | IC50 [3] [nM] | IC50 [4] [nM] | IC50 [5] [nM] | accumulation of the cells in the G2+M phase (L1210 cells) [%] | IC50 (murine leukaemia L1210) [nM] | T/C % ([1]; 3.12 mg/kg i.v.) [%] | Survivors D90 ([1]; 3.12 mg/kg i.v.)
1 | COc1cc([C@@H]2c3cc4c(cc3[C@@H](OC(=O)N(C)CCN(C)C)[C@@H]3COC(=O)[C@@H]23)OCO4)cc(OC)c1O [Example 1, (5S,5aS,8aS,9R)-9-(4-Hydroxy-3,5-dimethoxyphenyl)-8-oxo-5,5a,6,8,8a,9-hexahydro-furo[3′,4′:6,7]naphtho[2,3-d][1,3] dioxol-5-yl 2-(dimethylamino)ethyl(methyl)carbamate] | 165 | 1/7 | – | – | – | – | – | – | – | – | – | –
2 | (5S,5aS,8aS,9R)-9-(4-Hydroxy-3,5-dimethoxyphenyl)-8-oxo-5,5a,6,8,8a,9-hexahydro-furo[3′,4′:6,7]naphtho[2,3-d][1,3]dioxol-5-yl-2-(dimethylamino)ethylcarbamate [Example 6] | – | – | 203 | 121 | 85 | 71 | 96 | 46 | 86 | 38 | 168 | 1/7
